Target: T1, OST3 complex (Saccharomyces cerevisiae, UniProt P39007)
T1 construct: were purified separately from strains expressing only one type of complex; made in house; host or cells: Saccharomyces cerevisiae, BY4742-derived strain ost6::LEU2MX6 OST4-1D4::kanMX6 YEp352-OST3
Test: In vitro glycosylation assay, kinetic parameters for synthetic LLOs, OST3 complex
Format: biochemical
Source text: Synthetic LLO substrates all have two GlcNAcs as the sugar moiety, followed by pyrophosphate and lipid moieties (−R) of variable stereochemistry and length, denoted by the carbon chain length. C10, (S)-citronellyl; C15, farnesyl; C20, (S)-citronellylneryl; C25, (S)-citronellylfarnesyl; C90, represents the natural yeast dolichol lipid tail structure where n = 15. Figure modified from Ramirez et al. 2017 ([42]). B, quantification of kinetic parameters for the synthetic LLOs. Reactions were performed with 0.1 μM purified OST3 complex, 25 μM peptide TAMRA-YANATS, and varying concentrations of the different synthetic LLOs. Glycopeptide product was measured by UPLC and turnover rates were determined from the linear initial phase of the reaction. The mean of three reactions is shown and the data were fitted by nonlinear regression according to the Michaelis–Menten formula (R^2 = 0.9842 (LLO C15), 0.9685 (LLO C20), 0.9261 (LLO C25)) using Prism. Error bars indicate standard deviations from the mean (n = 3).
Concentrations of reactive LLO analogs were determined by in vitro glycosylation (see below) by titrating varying amounts of LLO against a known amount of fluorescently labeled peptide. Concentrations of nonreactive LLO analogs were determined by in vitro glycosylation by titrating varying amounts of nonreactive LLO while using known amounts of both fluorescently labeled peptide and active LLO analog.
Reactions were performed in a total volume of 10 μl containing the specified amount of TAMRA-labeled peptide, synthetic LLO analog, 10 mM MnCl2, and purified OST after size-exclusion chromatography in purification buffer (50 mM Hepes, pH 7.5, 150 mM NaCl, 1 mM MgCl2, 1 mM MnCl2, 10% (v/v) glycerol, 0.03% (w/v) DDM, and 0.006% (w/v) CHS). The concentration of OST was calculated using the molecular weight of 280 kDa. The reaction mixture was preincubated at 30 °C for 5 min before adding the peptide to start the reaction that proceeded at 30 °C. Time points were taken such that the reaction was in the linear phase. […]
Samples were analyzed by reverse-phase chromatography using a UPLC Dionex UltiMate 3000 with an Accucore 150-C18 100 × 2.1 mm 2.6 μm column (Thermo Fisher Scientific). One microliter sample (2 pmol of peptide) was injected and measured by isocratic elution using a certain proportion of ACN (15% ACN for peptide TAMRA-DANYTK; 20% ACN for peptide TAMRA-YANATS) in 10 mM KPO4, pH 8.0 buffer so that the glycopeptide and peptide are fully separated and elute within 3 min at a constant flow rate of 0.7 ml/min, with a column temperature of 45 °C. The peptide and glycopeptide were detected through TAMRA fluorescence (excitation wavelength: 546 nm; emission wavelength: 579 nm).
The UPLC profiles were analyzed by integrating the peaks corresponding to the glycopeptide and peptide using Chromeleon 7 (Dionex) and calculating the amount of glycopeptide formed using the following equation, as previously described ([43]): [GP]=PeakareaGP/PeakareaP+PeakareaGP×[P]
[GP] is the concentration of glycopeptide, Peak areaGP/P is the area under the curves measured for the glycopeptide or peptide, respectively, and [P] is the concentration of peptide at the start of the reaction. […] Unless specified otherwise, turnover rates were determined from the initial rates of reaction by taking into account the enzyme concentration in the reaction. […]

CC(=O)N[C@H]1[C@@H](OP(=O)(O)OP(=O)(O)OC/C=C(\C)CC/C=C(\C)CCC=C(C)C)O[C@H](CO)[C@@H](O[C@@H]2O[C@H](CO)[C@@H](O)[C@H](O)[C@H]2NC(C)=O)[C@@H]1O [LLO C15]
kcat/KM (0.1 μM purified OST3 complex, 25 μM TAMRA-YANATS): 0.02 min^-1 μM^−s1 | kcat (apparent) (0.1 μM purified OST3 complex, 25 μM TAMRA-YANATS, varying LLO (C15 5–200, C20 5–150, C25 2–50 μM), 30 °C, n = 3): 0.0283 ± 0.0017 s⁻¹ | Km (0.1 μM purified OST3 complex, 25 μM TAMRA-YANATS, varying LLO (C15 5–200, C20 5–150, C25 2–50 μM), 30 °C, n = 3, read-out: KM (apparent)): 67.9 ± 6.7 µM | apparent LLO affinity, in words (OST3 complex, from apparent KM): bound much less efficiently

From article PMC8191290, “Substrate specificities and reaction kinetics of the yeast oligosaccharyltransferase isoforms” (The Journal of Biological Chemistry, 2021)
